According to publication PMC9313321 (Biomedicines, 2022):

What was measured:
Aβ42 self-aggregation = target: T1, Aβ42 self-aggregation (Homo sapiens, UniProt P05067); test: biochemical; format: biochemical; conditions: read-out: Aβ42 Self-Aggreg. Inhib
T1 construct: Beta-amyloid protein, fragment 1-42; purchased GeneCust
Experimental: (§1) The inhibition of Aβ42 aggregation and Cu(II)-induced Aβ42 aggregation, carried out by the RIV–BIM hybrids, was studied using a reported method based on the fluorescence emission of thioflavin T [52, 53].
(§2) Solutions of phosphate buffer 0.215 M at pH = 8.00, Na2CO3 300 μM in distilled water, NaOH 250 mM in distilled water, glycine-NaOH 50 mM buffer at pH = 8.50 and CuCl2 240 μM in phosphate buffer were prepared. Stock solutions of […] of the RIV–BIM compounds were prepared in MeOH (with 20% DMSO). Working solutions of 240 μM of the RIV–BIM hybrids were prepared by the proper dilution of their stock solutions with phosphate buffer. A working solution of glycine-NaOH 50 mM buffer at pH = 8.50 containing 5 μM of thioflavin T (ThT) was prepared daily. Aβ42 (GeneCust) was pre-treated with 1,1,1,3,3,3-hexafluoro-2-propanol (HFIP) to obtain a solution of 0.149 mM by brief sonication and vortexing, which was kept covered overnight at room temperature. From the Aβ42 solution, aliquots of 250 μL were placed into Eppendorf tubes under ice and set to evaporate inside a hood at room temperature overnight. When the contents of the Eppendorf tubes were dried, the Aβ42 aliquots were stored at −20 °C until needed. To obtain the Aβ42 working solution, the Aβ42 aliquots were dissolved with a freshly prepared mixture of 69.5 μL of CH3CN/Na2CO3 (300 μM)/NaOH (250 mM) (48.3/48.3/3.4, v/v/v) by brief sonication and vortexing to obtain an Aβ42 solution of 531.24 μM. To this solution, 392.5 μL of phosphate buffer was added, achieving an Aβ42 working solution of 80 μM. To prepare the incubations, three replicates of Aβ42 alone (30 μL Aβ42 80 μM + 30 μL phosphate buffer), Aβ42 with RIV–BIM (30 μL Aβ42 80 μM + 10 μL RIV–BIM 240 μM + 20 μL phosphate buffer), Aβ42 with copper (30 μL Aβ42 80 μM + 10 μL CuCl2 240 μM + 20 μL phosphate buffer) and Aβ42 with copper and RIV–BIM (30 μL Aβ42 80 μM + 10 μL CuCl2 240 μM + 10 μL RIV–BIM 240 μM + 10 μL phosphate buffer) were placed in Eppendorfs. To obtain the blank solutions, a similar number of Eppendorfs, replacing Aβ42 with phosphate buffer, were prepared. Incubations were performed in a water bath at 37 °C with agitation for 24 h. Afterwards, 180 μL of glycine-NaOH 50 mM buffer at pH = 8.50 containing 5 μM of ThT was added to each Eppendorf and then they were vortexed. Finally, 200 μL of solution from each Eppendorf was placed in the wells of a microplate and fluorescence measurements were monitored using a Spectramax Gemini EM (Molecular Devices) fluorimeter with an excitation wavelength of 446 nm and an emission wavelength of 485 nm. Blank signals were subtracted from the corresponding samples. The fluorescence intensity of the Aβ42 + RIV–BIM solution was compared to that of the Aβ42 solution to obtain the inhibition of Aβ42 self-aggregation for each compound. The fluorescence intensity of the Aβ42 + Cu(II) + RIV–BIM solution was compared to that of the Aβ42 + Cu(II) solution to obtain the inhibition of the Cu(II)-induced Aβ42 aggregation for each hybrid.
(§3) The anti-amyloidogenic capacity of the compounds was assessed in vitro using the thioflavin T (ThT) method. To record fluorescence emission, excitation (446 nm) and emission (485 nm) wavelengths were used. When ThT binds to amyloid fibrils, an increase in absorbance and emission of this dye occurs with concomitant red shifts of the respective spectra. The percent of inhibition of Aβ42 aggregation is shown in Table 1, and the assays were performed in the presence of 20 μM of inhibitor. These concentration conditions were used to overcome solubility problems of some compounds in the aqueous phosphate buffer working medium. […]. […]

[1] = target: T2, Cu(II)-induced Aβ42 aggregation (Homo sapiens, UniProt P05067); test: Inhibition of Cu(II)-induced Aβ42 aggregation (thioflavin T fluorescence); format: biochemical; conditions: read-out: Aβ42 Cu-Ind. Aggreg. Inhib
T2 construct: Beta-amyloid protein, fragment 1-42; purchased GeneCust
Experimental: as §1, §2, §3

Aβ = tested on: Aβ; parameters: method as in PMID 32781220; conditions: 50 μM concentration; cited from earlier work
[2] = Radical scavenging activity (DPPH method); conditions: read-out: Antioxid. EC50, 30 min, absorbance 517 nm
Experimental: To determine the radical scavenging activity (antioxidant activity) of the novel RIV–BIM hybrids, the DPPH method was performed as previously described in the literature [49]. Working solutions of 20 mg of the ligands were prepared daily in 10 mL of MeOH (with a 10% of DMSO). A working solution of 2 mg DPPH in 100 mL MeOH was prepared daily, and its absorbance was checked to be between 0.75 and 1.00 (a.u.). […] Each one of the calibrate points was kept for 30 min under darkness to allow the ligands to exert their antioxidant effects. After 30 min, an auto-zero was performed with MeOH in both sample and reference cells, using a UV–Vis spectrophotometer. […] The antioxidant activity (%AA) for each point was calculated using the following equation: %AA=ADPPH−Aligand/ADPPH×100
The radical scavenging activity of the RIV–BIM compounds was determined by a spectrophotometric method involving the 2,2-diphenyl-1-picrylhydrazyl (DPPH) free radical [35, 64].

T1 sequence (P05067 672-713 limits assumed): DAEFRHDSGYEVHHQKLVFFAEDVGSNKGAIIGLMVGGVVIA
T2 sequence (P05067 672-713 limits assumed): as above

Row | Compound | inhibition at 20 µM (Aβ42 self-aggregation) [%] | inhibition at 20 µM [1] [%] | Aβ inhibition (Aβ) [%] | EC50 [2] [µM]
1 | COc1cc(/C=C/C(=O)CC(=O)/C=C/c2ccc(O)c(OC)c2)ccc1O [Curcumin, reference compound] | 65.7 | 62.7 | 62 | –
2 | Cc1c(O)c(=O)ccn1C [DMHP, reference compound] | – | – | – | 157 ± 8
3 | Nc1c2c(nc3ccccc13)CCCC2 [Tacrine, reference compound] | 28.1 | – | – | –
